Assay results reported in patent publication EP0639978B1, “PHARMACEUTICAL COMBINATION HAVING ANTINEOPLASTIC ACTIVITY” (priority 1991, dated 1992).
Counter-ions that a name gives are not always drawn.

How the values were obtained:
[1] = test system: kidneys of P388 leukemic BDFl mice; assay: Histological evaluation of renal damage; assay type: in vivo
Procedure: Stromal connective, wherein rare and scattered fibroblasts were detected, appeared remarkably thickened with resulting intertubular space increase. Renal corpuscle morphology appeared in a good preservation state in the components thereof and a slight increase of the glomerular chamber was recognized in few corpuscles only.
Immediately after withdrawal, renal parenchyma was fixed with 2.5% glutaraldehyde in 0.1 M Na cacodylate buffer (pH = 7.4) for 120 min.
After washing in the same buffer, the samples were dehydrated with ethanol and embedded in Epon 812. LKB Ultratom III microtome 2 µm sections were stained with aqueous 1% toluidine blue.

[2] = test system: P388 leukemia; assay: Therapeutic activity in P388 leukemia treatment (survival); assay type: in vivo, BDFl female mice; settings: for ILS (%): survival increase vs untreated controls
Procedure: The following tables and the enclosed figures refer to experiments carried out on BDFl mice inoculated with P388 leukemic cells and wherein the effect of DDP-Pd.HCl combination is compared, in terms of toxicity and therapeutic efficacy, with the one of the different components. From Pd-HCl toxicity results, which are reported in Table 1, the 50 mg/kg of Pd.HCl dose was selected for the investigations suited for the evaluation of DDP-Pd.HCl combination toxicity and therapeutic efficacy.

[3] = DDP 8 mg/kg i.p. days 1 and 5, vehicle H2O
[4] = DDP 16 mg/kg i.p. day 1, vehicle 0,9% NaCl
[5] = DDP 16 mg/kg i.p. day 1, vehicle H2O
[6] = Pd.HCl 50 mg/kg in H2O i.v., no DDP

Structure (SMILES)	Hystological evaluation of renal damage ([1]; 8 mg/kg of DDP alone at days 1, 5 and 9, mice killed the 10th day, cortical zone)	Survivors on day 60 (alive/treated) [2, 3]	MST ([2]; DDP 8 mg/kg i.p. days 1 and 5, vehicle H2O, median survival time, untreated controls 12 days)	ILS (%) [2, 3]	Survivors on day 60 (alive/treated) [2, 4]	MST ([2]; DDP 16 mg/kg i.p. day 1, vehicle 0,9% NaCl, median survival time, untreated controls 12 days)	ILS (%) [2, 4]	Survivors on day 60 (alive/treated) [2, 5]	MST ([2]; DDP 16 mg/kg i.p. day 1, vehicle H2O, median survival time, untreated controls 12 days)	ILS (%) [2, 5]	Hystological evaluation of renal damage ([1]; mouse, in vivo, 50 mg/kg)	MST [2, 6]	Survivors on day 60 (alive/treated) [2, 6]	ILS (%) [2, 6]	antitumor activity ([2]; procainamide by itself)
N.N.[Cl][Pt][Cl] [DDP, Cisplatin]	renal parenchyma alterations	0/8	7 days	-42%	2/10	22 days	83%	0/10	5 days	-58%	–	–	–	–	–
CCN(CC)CCNC(=O)c1ccc(N)cc1 [Pd.HCl, procainamide hydrochloride]	–	–	–	–	–	–	–	–	–	–	a picture similar to the one observed with DDP only	13 days	0/8	8,3%	no antitumor activity
